Legend:
Test in all cases: Greenhouse herbicidal activity, post-emergence treatment
Conditions in all cases: 0.5 or 0.25 kg/ha of a.s.
Chenopodium album = type: in vivo, Chenopodium album (lambsquarters, goosefoot)
Description: (§1) The culture containers used were plastic pots containing loamy sand with approximately 3.0% of humus as the substrate. The seeds of the test plants were sown separately for each species.
(§2) For the post-emergence treatment, the test plants were first grown to a height of 3 to 15 cm, depending on the plant habit, and only then treated with the active compounds which had been emulsified or suspended in water. The test plants were for this purpose either sown directly and grown in the same containers, or they were first grown separately as seedlings and transplanted into the test containers a few days prior to treatment. The application rate for the post-emergence treatment was 0.5 or 0.25 kg/ha of a.s.
(§3) Depending on the species, the plants were kept at 10-25° C. or 20-35° C. . The test period extended over 2 to 4 weeks. During this time, the plants were tended, and their response to the individual treatments was evaluated.
(§4) The evaluation was carried out using a scale from 0 to 100. 100 means no emergence of the plants, or complete destruction of at least the aerial parts, and 0 means no damage, or normal course of growth.
(§5) The plants used in the greenhouse trials were from the following species:
(§6) Herbicidal activity when employed by the post-emergence method (greenhouse) [drawing 20]

Setaria viridis = type: in vivo, Setaria viridis (green foxtail)
Description: as §1, §2, §3, §4, §5, §6

Sinapis alba = type: in vivo, Sinapis alba (white mustard)
Description: as §1, §2, §3, §4, §5, §6

Solanum nigrum = type: in vivo, Solanum nigrum (black nightshade)
Description: as §1, §2, §3, §4, §5, §6

Measured: control of the weed (herbicidal activity)

CC1(C)C(=O)C(C(=O)c2ccc(Cl)c(CC3=NOCC3)c2Cl)=C(O)C(C)(C)C1=O [Compound 37.2, 2,4-Dichloro-3-((4,5-dihydro-3-isoxazolylmethyl)phenyl)(3,3,6,6-tetramethylcyclohexane-1,3,5-trione)methanone]
very efficient control: all assays above
